{
  "source": "patent EP4015634A1",
  "about": "“SIRNA AND COMPOSITIONS FOR PROPHYLACTIC AND THERAPEUTIC TREATMENT OF VIRUS DISEASES” (SYLENTIS, S.A.U., priority 2020, dated 2022)",
  "origin": "cited, not measured here",
  "key": {"SARS-CoV-2": {"system": "SARS-CoV-2", "settings": "in vitro studies"}, "patients with COVID-19": {"system": "patients with COVID-19", "settings": "phase I"}},
  "note": "*1 amine or outer side, *2 acyl side, *3 side chain or, on linkers, in order; H or OH if unused. Where a SMILES comes first, the peptide text is derived from it. Bridges are numbered along the chain shown (N, C = ends). [ ]: non-standard residue; d: D form. The star is where a group is joined. X1 = CC[C@H](C)[C@@H](N[*:1])[C@@H](O)CC(=O)O[C@H](C(=O)[C@H](C)C(=O)[*:2])C(C)C; NMeY = CN[C@@H](Cc1ccc(O)cc1)C(=O)O; dNMeL = CN[C@H](CC(C)C)C(=O)O; Pyruvoyl = CC(=O)C(=O)*",
  "data": [
    {"compound": "CC[C@H](C)[C@H]1NC(=O)[C@@H](NC(=O)[C@@H](CC(C)C)N(C)C(=O)[C@@H]2CCCN2C(=O)C(C)=O)[C@@H](C)OC(=O)[C@H](Cc2ccc(OC)cc2)N(C)C(=O)[C@@H]2CCCN2C(=O)[C@H](CC(C)C)NC(=O)[C@@H](C)C(=O)[C@H](C(C)C)OC(=O)C[C@@H]1O", "note": "[plitidepsin] (Pyruvoyl-P[dNMeL]T[X1]LP[NMeY](Me); ester 3-C)", "values": [
      {"measurement": "SARS-CoV-2 viral load in vitro", "setting": "SARS-CoV-2", "value": "reduced SARS-CoV-2 viral load at nanomolar concentrations"},
      {"measurement": "primary safety endpoint", "setting": "patients with COVID-19; patients with COVID-19 who required hospitalization", "value": "met the primary safety endpoint"},
      {"measurement": "preliminary secondary endpoints of efficacy", "setting": "patients with COVID-19; treated patients", "value": "substantial reduction in viral load and the C-reactive protein"}
    ]}
  ]
}
